Measurements: patent US20240423995A1, “C-KIT INHIBITORS AND USES FOR TREATING AND PREVENTING INFLAMMATORY CONDITIONS” (GEORGETOWN UNIVERSITY, priority 2023, published 2024)

How the values were obtained:
KIT autoinhibited = molecular target: T1, KIT autoinhibited (Homo sapiens, UniProt P10721); experiment: KINOMEscan competition binding screen, KIT autoinhibited; conditions: for remaining binding at 10 µM: read-out: % Ctrl @ 10 μM
T1 construct: purchased Eurofins DiscoverX Corporation
Protocol: (§1) The KINOMEscan™ screening platform (Eurofins DiscoverX Corporation, San Diego, USA) was performed using an active site-directed competition binding assay to quantitatively measure interactions between BK40143, BK40197, BK40195, and BK40196 and more than 450 human kinases and disease relevant mutant variants. […] Screening “hits” were identified by measuring the amount of kinase captured in test (BK40143, BK40197, BK40195, and BK40196) versus control samples by using a quantitative and ultra-sensitive qPCR method that detects the associated DNA label. BK40143, BK40197, BK40195, and BK40196 were screened at 10 μM concentration, and results for primary screen binding interactions were reported as ‘% Ctrl’ (POC), where lower numbers indicate stronger hits and calculated as follows:
(§2) [formula] • test compound=BK40143 or BK40197 or BK40195 or BK40196 • negative control=DMSO (100% Ctrl) • positive control=control compound (0% Ctrl)
(§3) Based on screening data of profiled compounds, a proportional relationship between primary screening results and corresponding compound/target affinities can be described as binding constants (Kd values) for the indicated ranges of percent of control (PoC) values, with tighter binding (higher affinity) interactions associated with lower PoC values, and weaker binding (lower affinity) associated with higher PoC values. Briefly, kinase-tagged T7 phage strains were grown in parallel in 24-well blocks in an E. coli host derived from the BL21 strain. E. coli were grown to log-phase and infected with T7 phage from a frozen stock (multiplicity of infection=0.4) and incubated with shaking at 32° C. until lysis (90-150 minutes). The lysates were centrifuged (6,000×g) and filtered ([…]) to remove cell debris. The remaining kinases were produced in HEK-293 cells and subsequently tagged with DNA for qPCR detection. Streptavidin-coated magnetic beads were treated with biotinylated small molecule ligands for 30 minutes at room temperature to generate affinity resins for kinase assays. The liganded beads were blocked with excess biotin and washed with blocking buffer (SeaBlock (Pierce), 1% BSA, 0.05% Tween 20, 1 mM DTT) to remove unbound ligand and to reduce non-specific phage binding. Binding reactions were assembled by combining kinases, liganded affinity beads, and test compounds in 1× binding buffer (20% SeaBlock, 0.17×PBS, 0.05% Tween 20, 6 mM DTT). Test compounds were prepared as 100× stocks in 100% DMSO and directly diluted into the assay. All reactions were performed in polypropylene 384-well plates in a final volume of 0.02 ml. The assay plates were incubated at room temperature with shaking for 1 hour and the affinity beads were washed with wash buffer (1×PBS, 0.05% Tween 20). The beads were then re-suspended in elution buffer (1×PBS, 0.05% Tween 20, 0.5 μM non-biotinylated affinity ligand) and incubated at room temperature with shaking for 30 minutes. The kinase concentration in the eluates was measured by qPCR.

KIT (D816H) = molecular target: T2, KIT (D816H) (Homo sapiens, UniProt P10721, D816H); experiment: KINOMEscan competition binding screen, KIT (D816H); conditions: for remaining binding at 10 µM: read-out: % Ctrl @ 10 μM
T2 construct: purchased Eurofins DiscoverX Corporation
Protocol: as §1, §2, §3

DDR1 = molecular target: T3, DDR1 (Homo sapiens, UniProt Q08345); experiment: KINASESEEKER competition binding assay, DDR1; conditions: minimum 8-point curve, duplicate
T3 construct: purchased Luceome Biotechnologies, LLC
Protocol: (§4) Kinase assays were performed using KINASESEEKER™ (Luceome Biotechnologies, LLC; Tucson, AZ). KINASESEEKER™ is a homogeneous competition binding assay in which the displacement of an active site-dependent probe by an inhibitor is measured by a change in luminescence signal. Luminescence readout translates into a highly sensitive and robust assay with low background and minimal interference from test compounds. See J. Am. Chem. Soc., 2010, 132, 11727-11735.
(§5) Stock solutions of compounds were serially diluted in DMSO to make assay stocks. Prior to initiating IC50 determination, the test compounds were evaluated for false positives against split-luciferase. The compounds were screened against kinases at a minimum of 8 different concentrations in duplicate. For kinase assays, a 24 μL aliquot of lysate containing Cfluc-kinase and Fos-Nfluc was incubated for 2 hours with either 1 μL of DMSO (for no-inhibitor control) or compound solution in DMSO in presence of a kinase specific probe. 80 μL of luciferin assay reagent was added to each solution and luminescence was immediately measured on a luminometer.
(§6) The % Inhibition and % Activity Remaining was calculated using the following equation: […]
(§7) The % Activity Remaining was plotted against compound concentration and the IC50 was determined for each compound using a minimum 8-point curve.

KIT (D816V) = molecular target: T4, KIT (D816V) (Homo sapiens, UniProt P10721, D816V); experiment: KINOMEscan competition binding screen, KIT (D816V); conditions: for remaining binding at 10 µM: read-out: % Ctrl @ 10 μM
T4 construct: purchased Eurofins DiscoverX Corporation
Protocol: as §1, §2, §3

SRC = molecular target: T5, SRC (Homo sapiens, UniProt P12931); experiment: KINOMEscan competition binding screen, SRC; conditions: for remaining binding at 10 µM: read-out: % Ctrl @ 10 μM
T5 construct: purchased Eurofins DiscoverX Corporation
Protocol: as §1, §2, §3

DDR2 = molecular target: T6, DDR2 (Homo sapiens, UniProt Q16832); experiment: KINASESEEKER competition binding assay, DDR2; conditions: minimum 8-point curve, duplicate
T6 construct: purchased Luceome Biotechnologies, LLC
T6 sequence (Q16832 22-855): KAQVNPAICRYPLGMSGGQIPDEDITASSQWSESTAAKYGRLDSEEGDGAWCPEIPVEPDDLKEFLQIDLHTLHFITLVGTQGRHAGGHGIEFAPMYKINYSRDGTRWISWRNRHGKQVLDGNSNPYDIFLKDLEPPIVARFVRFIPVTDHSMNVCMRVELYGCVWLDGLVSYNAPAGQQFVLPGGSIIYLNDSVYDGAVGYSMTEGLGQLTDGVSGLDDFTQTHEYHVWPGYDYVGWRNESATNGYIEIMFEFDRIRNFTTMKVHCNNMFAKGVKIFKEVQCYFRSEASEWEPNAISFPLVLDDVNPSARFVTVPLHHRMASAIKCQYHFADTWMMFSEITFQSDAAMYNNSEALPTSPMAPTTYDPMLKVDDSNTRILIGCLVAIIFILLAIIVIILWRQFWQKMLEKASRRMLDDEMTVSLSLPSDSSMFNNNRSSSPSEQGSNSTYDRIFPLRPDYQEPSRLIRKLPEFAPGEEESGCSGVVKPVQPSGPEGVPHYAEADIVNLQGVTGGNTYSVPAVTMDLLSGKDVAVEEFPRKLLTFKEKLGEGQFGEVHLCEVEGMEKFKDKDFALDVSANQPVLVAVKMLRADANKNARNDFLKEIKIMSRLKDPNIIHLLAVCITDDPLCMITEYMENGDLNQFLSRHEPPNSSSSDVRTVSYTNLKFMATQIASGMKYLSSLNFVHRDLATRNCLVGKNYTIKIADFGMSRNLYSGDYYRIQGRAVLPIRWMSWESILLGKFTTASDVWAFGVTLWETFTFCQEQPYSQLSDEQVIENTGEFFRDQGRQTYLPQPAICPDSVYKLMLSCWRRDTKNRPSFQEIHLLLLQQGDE
Protocol: as §4, §5, §6, §7

T3 sequence (Q08345 19-913): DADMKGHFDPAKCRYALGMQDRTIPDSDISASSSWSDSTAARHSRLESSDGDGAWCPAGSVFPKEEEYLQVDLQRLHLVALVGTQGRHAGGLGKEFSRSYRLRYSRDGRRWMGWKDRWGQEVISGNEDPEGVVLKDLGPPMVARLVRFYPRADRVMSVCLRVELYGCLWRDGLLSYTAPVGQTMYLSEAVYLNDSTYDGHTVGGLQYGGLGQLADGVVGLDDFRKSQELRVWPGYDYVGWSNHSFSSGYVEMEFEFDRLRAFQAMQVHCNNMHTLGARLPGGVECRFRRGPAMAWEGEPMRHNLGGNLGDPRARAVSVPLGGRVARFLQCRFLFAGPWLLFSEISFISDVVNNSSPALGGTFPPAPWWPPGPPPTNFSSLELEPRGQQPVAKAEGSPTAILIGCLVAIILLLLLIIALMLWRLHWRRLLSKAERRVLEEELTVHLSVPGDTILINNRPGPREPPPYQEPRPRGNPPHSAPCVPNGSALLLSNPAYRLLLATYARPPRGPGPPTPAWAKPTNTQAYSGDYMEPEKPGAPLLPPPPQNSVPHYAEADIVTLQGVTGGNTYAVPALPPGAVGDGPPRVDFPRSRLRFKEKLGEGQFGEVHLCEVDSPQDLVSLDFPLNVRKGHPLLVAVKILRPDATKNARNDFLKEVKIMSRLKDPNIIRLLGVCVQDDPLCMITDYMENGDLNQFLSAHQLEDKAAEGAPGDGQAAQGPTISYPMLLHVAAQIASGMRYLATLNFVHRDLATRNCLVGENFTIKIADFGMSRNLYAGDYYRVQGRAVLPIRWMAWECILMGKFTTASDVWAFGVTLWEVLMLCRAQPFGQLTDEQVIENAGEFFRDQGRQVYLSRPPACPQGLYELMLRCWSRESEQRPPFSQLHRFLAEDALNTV
T1 sequence (P10721 544-976 limits assumed): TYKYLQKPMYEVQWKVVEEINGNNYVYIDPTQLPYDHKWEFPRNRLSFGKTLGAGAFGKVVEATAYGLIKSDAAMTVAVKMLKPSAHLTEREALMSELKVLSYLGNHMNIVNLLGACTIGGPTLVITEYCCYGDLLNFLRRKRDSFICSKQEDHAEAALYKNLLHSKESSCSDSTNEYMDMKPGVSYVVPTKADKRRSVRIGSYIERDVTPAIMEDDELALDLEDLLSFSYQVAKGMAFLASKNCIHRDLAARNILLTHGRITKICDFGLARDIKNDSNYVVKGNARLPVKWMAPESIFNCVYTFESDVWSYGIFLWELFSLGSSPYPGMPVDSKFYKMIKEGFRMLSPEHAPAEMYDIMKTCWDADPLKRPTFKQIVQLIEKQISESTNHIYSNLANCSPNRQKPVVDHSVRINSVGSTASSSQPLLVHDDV
T4 sequence (P10721 26-976 D816V): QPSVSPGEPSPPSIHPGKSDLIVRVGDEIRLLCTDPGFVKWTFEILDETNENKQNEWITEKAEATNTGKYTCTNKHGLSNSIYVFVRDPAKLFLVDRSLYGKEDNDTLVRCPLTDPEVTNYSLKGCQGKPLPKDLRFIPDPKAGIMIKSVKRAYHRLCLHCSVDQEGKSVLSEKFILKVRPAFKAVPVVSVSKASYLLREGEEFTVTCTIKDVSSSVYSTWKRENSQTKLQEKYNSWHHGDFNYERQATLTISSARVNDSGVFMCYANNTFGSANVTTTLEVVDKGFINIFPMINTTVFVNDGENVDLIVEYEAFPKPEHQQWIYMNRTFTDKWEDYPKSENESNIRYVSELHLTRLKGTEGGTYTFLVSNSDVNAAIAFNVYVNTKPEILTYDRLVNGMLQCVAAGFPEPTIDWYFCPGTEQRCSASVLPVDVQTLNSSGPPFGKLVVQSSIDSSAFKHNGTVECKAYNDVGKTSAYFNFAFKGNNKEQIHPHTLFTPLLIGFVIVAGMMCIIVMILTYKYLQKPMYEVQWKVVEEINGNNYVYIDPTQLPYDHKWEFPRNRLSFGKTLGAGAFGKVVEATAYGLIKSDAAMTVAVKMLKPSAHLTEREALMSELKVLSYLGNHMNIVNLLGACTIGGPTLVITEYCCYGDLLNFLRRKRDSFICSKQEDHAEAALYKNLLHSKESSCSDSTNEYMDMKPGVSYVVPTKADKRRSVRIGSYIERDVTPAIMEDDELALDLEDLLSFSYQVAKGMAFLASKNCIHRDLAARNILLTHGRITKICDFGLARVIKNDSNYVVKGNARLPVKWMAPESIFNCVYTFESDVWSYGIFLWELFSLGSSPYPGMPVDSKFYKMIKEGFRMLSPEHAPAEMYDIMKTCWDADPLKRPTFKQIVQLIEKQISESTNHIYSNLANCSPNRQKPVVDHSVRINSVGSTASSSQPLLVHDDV
T5 sequence (P12931 whole entry): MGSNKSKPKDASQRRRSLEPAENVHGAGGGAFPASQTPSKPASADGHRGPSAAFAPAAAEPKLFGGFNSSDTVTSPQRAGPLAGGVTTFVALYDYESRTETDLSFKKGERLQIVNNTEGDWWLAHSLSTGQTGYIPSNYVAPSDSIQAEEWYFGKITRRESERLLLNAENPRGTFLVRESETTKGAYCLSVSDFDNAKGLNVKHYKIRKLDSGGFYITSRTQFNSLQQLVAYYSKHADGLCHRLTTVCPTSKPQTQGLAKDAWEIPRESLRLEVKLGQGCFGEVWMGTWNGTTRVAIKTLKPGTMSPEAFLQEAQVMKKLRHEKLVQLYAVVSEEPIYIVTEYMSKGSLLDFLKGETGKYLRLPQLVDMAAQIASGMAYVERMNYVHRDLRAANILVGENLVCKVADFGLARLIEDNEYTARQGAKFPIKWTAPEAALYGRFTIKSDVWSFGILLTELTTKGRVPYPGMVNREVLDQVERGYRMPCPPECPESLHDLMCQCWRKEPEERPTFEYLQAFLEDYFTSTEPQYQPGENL
T2 sequence (P10721 26-976 D816H): as the sequence (P10721 26-976 D816V) above, with V791H counted along it

inhibition at 10 µM (KIT autoinhibited) | remaining binding at 10 µM (KIT autoinhibited) | inhibition at 10 µM (KIT (D816H)) | remaining binding at 10 µM (KIT (D816H)) | IC50 (DDR1) | inhibition at 10 µM (KIT (D816V)) | remaining binding at 10 µM (KIT (D816V)) | inhibition at 10 µM (SRC) | remaining binding at 10 µM (SRC) | IC50 (DDR2) | Compound
31% | 69% | 54% | 46% | 7050 ± 1050 nM | 65% | 35% | 94.7% | 5.3% | 6030 ± 930 nM | Cc1cccc(-c2cc3nccc(Nc4ccccc4)c3s2)c1 [BK40143]
78% | 22% | 93.9% | 6.1% | 2200 ± 260 nM | 98.3% | 1.7% | 99.7% | 0.35% | 1900 ± 260 nM | COc1cccc(Nc2ccnc3cc(-c4cccc(C)c4)sc23)c1 [BK40195]
44% | 56% | 94.1% | 3.9% | 1070 ± 130 nM | 99.8% | 0.2% | 99.9% | 0.1% | 922 ± 130 nM | Cc1cccc(-c2cc3nccc(Nc4cccc(O)c4)c3s2)c1 [BK40196]

Compound | inhibition at 10 µM (KIT autoinhibited) | remaining binding at 10 µM (KIT autoinhibited) | inhibition at 10 µM (KIT (D816H)) | remaining binding at 10 µM (KIT (D816H)) | IC50 (DDR1) | inhibition at 10 µM (KIT (D816V)) | remaining binding at 10 µM (KIT (D816V)) | inhibition at 10 µM (SRC) | remaining binding at 10 µM (SRC) | IC50 (DDR2)
Cc1cccc(-c2cc3nccc(N4CCOCC4)c3s2)c1 [BK40197] | 48% | 52% | 0% | 100% | – | 33% | 67% | 19% | 81% | –
